Source: patent US20140088197A1, “MIXED CRYSTAL AGOMELATINE (FORM VIII), PREPARATION METHOD AND USE THEREOF AND PHARMACEUTICAL COMPOSITION CONTAINING SAME” (LES LABORATORIES SERVIER, priority 2011, published 2014)
Converted amounts (≈) assume the structure as drawn. Like-named read-outs stand apart in the source and are kept apart here.

Assays:
Type in all cases: physicochemical
[1] = Storage stability at 40° C. for 20 days, purity and content by HPLC; conditions: for Content: external standard method; for Purity: internal standard method
Experimental: Agomelatine crystalline forms VI and VIII (obtained through embodiment 2) are each placed in thermostatic containers at a temperature of 40° C. and stored for 20 days, with the stability of these samples being studied using the method of High Performance Liquid Chromatography.
1. Purity Measurement of the Sample
Chromatographic conditions: Octadecyl silane chemically bonded silica is used as packing; a mixed solution of 10 mmol/L phosphate buffer (adjusted to pH 7.0 with sodium hydroxide) and acetonitrile in the ratio 2:7 by volume acts as the mobile phase; column temperature 40° C.; and detection wavelength 220 nm. Purity is measured using an internal standard method.
In the mobile phase, crystalline forms VI and VIII are distributed into 1 mg/mL solutions, 10 μL of each of which are then passed into a liquid chromatograph, with their chromatograms being recorded.
The reference sample purity measurement method was used, with measurements being made using an […], the results can be seen in Table I.

[2] = Measurement of water solubility (HPLC, external standard); conditions: for solubility: water
Excerpt: 3. Measurement of Water Solubility
The HPLC method was used to determine water solubility, with measurements being made using an external standard method.

[3] = Determination of crystalline stability (pharmacopoeia stability assessment method); parameters: key to Crystalline stability, long term testing (6 months) / Crystalline stability, long term testing (9 months) / Crystalline stability, long term testing (12 months) / Crystalline stability, influencing factor: high temperature / Crystalline stability, influencing factor: illumination / Crystalline stability, influencing factor: high humidity / Crystalline stability, accelerated testing: √—stable; x—unstable; conditions: for Crystalline stability, influencing factor: high temperature: 60° C.; for Crystalline stability, influencing factor: high temperature / Crystalline stability, influencing factor: high humidity / Crystalline stability, influencing factor: illumination: exposed for 10 days; for Crystalline stability, influencing factor: high humidity: 92.5% RH; for Crystalline stability, influencing factor: high humidity / Crystalline stability, long term testing (6 months) / Crystalline stability, long term testing (9 months) / Crystalline stability, long term testing (12 months): 25° C.; for Crystalline stability, accelerated testing: hermetically sealed for 6 months, 30° C., 65% RH; for Crystalline stability, long term testing (6 months) / Crystalline stability, long term testing (9 months) / Crystalline stability, long term testing (12 months): hermetically sealed, 60% RH
Excerpt: 4. Determination of Crystalline Stability

[4] = after storage in thermostatically controlled containers at 40° C. for 20 days
[5] = compared with crystalline form VI

Row | Content [1, 4] | Purity [1, 4] | Content ([1]; before storage) | Purity ([1]; before storage) | solubility ([2]; read-out: Solubility) | Crystalline stability, influencing factor: high temperature [3] | Crystalline stability, influencing factor: high humidity [3] | Crystalline stability, influencing factor: illumination [3] | Crystalline stability, accelerated testing [3] | Crystalline stability, long term testing (6 months) [3] | Crystalline stability, long term testing (9 months) [3] | Crystalline stability, long term testing (12 months) [3] | Solubility compared with crystalline form VI [2, 5] | solubility [2] | Stability under high temperature compared with crystalline form VI [3, 5] | Compound | Crystal transition under extreme conditions ([3]; high temperature of 60° C. for 10 days)
1 | 99.8% | 99.6% | 100.1% | 99.7% | 336 µg/mL (≈ 1380 µM) | x* | √ | √ | √ | √ | √ | x | – | – | – | COc1ccc2cccc(CCNC(C)=O)c2c1 [Crystalline form VI, N-[2-(7-methoxy-1-naphthyl)ethyl]acetamide, reference compound] | small amounts of crystal transition can occur
2 | 100.1% | 99.7% | 100.3% | 99.8% | – | √* | √ | √ | √ | √ | √ | √ | comparable solubility | 335 µg/mL (≈ 1380 µM) | greater stability under high temperature | COc1ccc2cccc(CCNC(C)=O)c2c1 [Form VIII, N-[2-(7-methoxy-1-naphthyl)ethyl]acetamide] | –
